Test results: a melting point compilation (Tetko et al.)

melting point | SMILES
190 to 192 °C | N#Cc1sc(-c2cccc(Cl)c2)cc1N
119 to 121 °C | Cc1cc2ncn(CC3CO3)c2cc1C (configuration not stated)
88 to 90 °C | CON(C)S(=O)(=O)c1cc(N)ccc1Cl
202 to 204 °C | O=C(O)c1cc2ccccc2c(Cl)n1
94 to 96 °C | COC(=O)c1c(N)sc(C)c1-c1ccc(Cl)cc1Cl
158 to 160 °C | CC(NC(=O)c1ccc(Cl)cc1)C(=O)O (configuration not stated)
202 to 204 °C | O=C(O)C1CCCN(S(=O)(=O)c2ccc(Cl)cc2)C1 (configuration not stated)
130 to 132 °C | O=C(O)Cc1ccc(-n2cccn2)cc1
277 to 279 °C | Oc1cc(C(F)(F)F)nc(-c2cccnc2)n1
209 to 211 °C | NNC(=O)c1ccc(Cl)cc1O
87 to 89 °C | CC(N)c1ccc(-c2ccncc2)cc1 (configuration not stated)
145 to 147 °C | Cc1cc(N)n(-c2cccc(Br)c2)n1
200 to 202 °C | Cc1cc2ncc3c(n2n1)C(=O)OCC3
209 to 211 °C | O=C(O)CCSc1ccnc2cc(Cl)ccc12
174 to 176 °C | O=C(O)c1cnnn1-c1ccccc1Cl
144 to 146 °C | O=C(O)C1CC1c1c(Cl)cccc1Cl (configuration not stated)
122 to 124 °C | CC(=O)c1ccc(OCC(=O)N2CCCC2)cc1

melting point | SMILES
55 to 57 °C | CCOC(=O)c1ccc(C(C)=O)cc1
226 to 228 °C | Cn1cc(C(=O)O)c(-c2ccc(N)cc2)n1
126 to 128 °C | O=C(O)CCCOc1ccc(I)cc1
201 to 203 °C | N#Cc1cccnc1-n1cncn1
104 to 106 °C | Cc1ccc(-c2nc(CC(=O)O)cs2)c(C)c1
92 to 94 °C | Cc1c(Cl)ccc2ccc(Cl)nc12
134 to 136 °C | CC(=O)Nc1cc(N)ccc1F
186 to 188 °C | NS(=O)(=O)Cc1cc(Cl)ccc1F
173 to 175 °C | CN(C)c1ncccc1O
150 to 152 °C | OCc1nc2ccccc2n1C(F)F
88 to 90 °C | O=C(O)C(=O)c1ccc(F)c(F)c1
79 to 81 °C | O=Cc1ccc(Oc2cnccn2)cc1
240 to 242 °C | Cc1ccc(-n2nc(C(=O)O)ccc2=O)cc1Cl
114 to 116 °C | Clc1ccc2nccn2n1
99 to 101 °C | Nc1cc(Cl)c(I)cn1
113 to 115 °C | Fc1ccc(Oc2ccc(Cl)nn2)c(F)c1
294 to 296 °C | NC(=O)Cn1ccc(=O)c2ccccc21

The remaining lines, values behind:

SMILES | melting point
COC(=O)c1ccc(C(=O)O)o1 | 194 to 196 °C
Nc1c(Br)cc(Cl)cc1C(=O)O | 232 to 234 °C
Cc1nscc1C(=O)O | 219 to 221 °C
COc1ccc(S(=O)(=O)N(C)C)cc1NC(=O)CCl | 152 to 154 °C
Nc1ccc(F)c(NC(=O)CCN2CCOCC2)c1 | 119 to 121 °C
NCCc1ccccc1O | 107 to 109 °C
COc1ccc(OCC(=O)O)c(C=O)c1 | 154 to 156 °C
CCN(CC)S(=O)(=O)c1cc(C)c(C)c(N)c1 | 147 to 149 °C
CC(C)(C)Cc1nc2cc(N)ccc2o1 | 83 to 85 °C
CC1(C)C(=O)NC(=O)N1CC(N)=O | 154 to 156 °C
O=C1NC(=O)C2(CCCc3ccccc32)N1 (configuration not stated) | 203 to 205 °C
CC1CC(C)CN(S(=O)(=O)c2ccc(S(=O)(=O)Cl)cc2)C1 (configuration not stated) | 153 to 155 °C
Cc1cc(C)c2cc(C(=O)O)[nH]c2c1C | 227 to 229 °C
CCNS(=O)(=O)c1ccc2c(c1)NCC2 | 112 to 114 °C
CC1(C)CCC(CC(=O)O)CC1 | 45 to 47 °C
Cc1cscc1C(=O)O | 135 to 137 °C
Cc1ccc(C2CC2C(=O)O)s1 (configuration not stated) | 45 to 47 °C
COCCNS(=O)(=O)c1ccc(N)cc1 | 83 to 85 °C
O=C1CNC2(CCCCC2)C(=O)N1 | 184 to 186 °C
C#CCNC(=O)Nc1cccc([N+](=O)[O-])c1 | 173 to 175 °C
COc1ccc(OCC(=O)NN)cc1 | 142 to 144 °C
CCCn1c(=O)n(CC(=O)O)c2ccccc21 | 173 to 175 °C
CC(NS(=O)(=O)c1cccc(C(=O)O)c1)c1ccccc1 (configuration not stated) | 149 to 151 °C

SMILES | melting point
O=C(O)CCS(=O)c1ccc2c(c1)OCCCO2 (configuration not stated) | 114 to 116 °C
CCOc1cccc(C=O)c1OC(F)F | 41 to 43 °C
Nc1[nH]nc(-c2ccsc2)c1-c1ccc2c(c1)OCO2 | 79 to 81 °C
CNC(CCO)c1ccccc1 (configuration not stated) | 56 to 58 °C
Oc1ccc(-c2noc(-c3cccc(Br)c3)n2)cc1 | 222 to 224 °C
CC(C)OC(=O)N1CCC(C(=O)O)(C(F)(F)F)C1 (configuration not stated) | 98 to 100 °C
CCN(C1CC1)S(=O)(=O)c1c(C)n[nH]c1C | 97 to 99 °C
NCc1ccc(N2CCNCC2)cc1 | 163 to 165 °C
Nc1cc(Br)cc(C(=O)O)c1 | 217 to 221 °C
Nc1ccccc1S(=O)(=O)C(F)(F)F | 47 to 49 °C
Cc1cc(C(=O)O)c2[nH]ncc2c1 | 286 to 288 °C
CN1CCN(C)c2cc(N)ccc2C1=O | 188 to 190 °C
O=C(O)Cc1ccc(NC(=O)c2cc3ccccc3o2)cc1 | 189 to 191 °C
CCOC(=O)c1cnc2c(OC)cc(OC)cc2c1Cl | 148 to 150 °C
CC(=O)CCc1ccc(OCC(=O)O)cc1 | 106 to 108 °C
ClCc1csc(-c2ccsc2)n1 | 64 to 66 °C
COc1cc(C=O)cc(OC)c1OC(F)F | 115 to 117 °C
NC(CNS(=O)(=O)c1ccc(F)cc1)=NO | 148 to 150 °C
CCC(=O)NC=C(Cl)Cl | 93 to 95 °C
COc1ccc(N)cc1OCC1CCCO1 (configuration not stated) | 85 to 87 °C
O=C(O)CNS(=O)(=O)c1cc(C(F)(F)F)ccc1Cl | 157 to 159 °C
O=C(O)c1ccc(Br)c(S(=O)(=O)N2CCOCC2)c1 | 167 to 169 °C
COc1cc(CC#N)c(Br)cc1OC(F)F | 80 to 82 °C

SMILES | melting point
COc1nc(N)n[nH]1 | 165 to 167 °C
CC1(c2cccc(C(F)(F)F)c2)NC(=O)NC1=O (configuration not stated) | 219 to 221 °C
CC(C)(C)OC(=O)NC(CC(=O)O)c1ccccc1 (configuration not stated) | 135 to 137 °C
Cc1ccc(S(=O)(=O)Oc2cccnc2[N+](=O)[O-])cc1 | 83 to 85 °C
CC(C)CCS(=O)(=O)CC(=O)O | 61 to 63 °C
c1c[nH]c(C2CCNCC2)n1 | 176 to 178 °C
N#Cc1cccc(OC2CCNCC2)c1 | 52 to 54 °C
O=C(O)Cc1ccc(C(F)F)cc1 | 76 to 78 °C
COc1ccc(C)cc1NC(=O)c1cc2ccccc2cc1O | 178 to 180 °C
O=C1NC(=O)C2(CCNC2)N1 (configuration not stated) | 201 to 203 °C
O=C(O)c1ccccc1SCC(=O)N1CCCC1 | 115 to 117 °C
Cc1ccc(C)c(-c2n[nH]c(=O)c3ccccc23)c1 | 216 to 218 °C
CC1(c2ccc(Br)s2)NC(=O)NC1=O (configuration not stated) | 184 to 186 °C
O=C(O)CNC(=O)CC(F)(F)F | 122 to 124 °C
CC(=CC(=O)O)c1ccccc1C(F)(F)F | 133 to 135 °C
COC(=O)CCNc1ccc(C)cc1 | 59 to 61 °C
Cc1cc(C)nc(-n2cc(C(=O)O)c(C(C)C)n2)n1 | 171 to 173 °C
Cc1nnc(N2CCCC2)c(C#N)c1C | 146 to 148 °C
c1ccc2c(c1)C1CCC2N1 | 92 to 94 °C
O=S1(=O)CCC(c2nnc(S)o2)C1 (configuration not stated) | 181 to 183 °C
O=C(O)C1(NS(=O)(=O)c2cccc(F)c2)CCCCC1 | 213 to 215 °C
CC(=O)c1cc(F)c(N)c(F)c1 | 69 to 71 °C
